Test results published in US20110189161A1, “NUTRIGENOMICS METHODS AND COMPOSITIONS” (priority 2008, published 2011).
Read-outs that look alike come from different tables or passages of the source. Bridge positions count the residues as written; N and C are the ends. Square brackets hold non-standard residues; d marks the D form. Peptide text beside a SMILES is read from it. * marks the point of attachment. Ileψ(thiazoline)Cys = CC[C@H](C)[C@H](N)C1=N[C@H](C(=O)*)CS1; dOrn = NCCC[C@@H](N)C(=O)O

Tests used:
[1] = system: SH-SY5Y human neuroblastoma cells; conditions: cited from earlier work
rats [2] = conditions: morphine 5 mg/kg, D-phenylalanine 100 mg/kg; similar degree; cited from earlier work
enkephalinase = conditions: cited from earlier work; for CSF EKA / plasma EKA: human sufferers
[3] = system: release of serotonin in the lateral hypothalamus; conditions: systemic administration, long lasting and dose dependent; cited from earlier work
rat skin = conditions: applied to rat skin; cited from earlier work
methadone patients = experiment: Compliance with Trexan after rapid detoxification of methadone patients; assay type: in vivo, human; conditions: P<0.0001
Source text: It may also be interesting too further test this hypothesis with the sublingual combination of the partial opiate mu receptor agonist buprenorphrine.

obese women = conditions: cited from earlier work
Over-Eating [4] = conditions: 400 mcg, cited from earlier work
[5] = system: obese subjects genotyped for DRD2; experiment: Chromium picolinate body composition as a function of DRD2 genotype; assay type: in vivo, human; conditions: subjects possessing a DRD2 A1 allele
Protocol: A Case Study: Chromium and Dopamine Genes. The inventors embarked on a study with chromium picolinate to test out the principles of nutrigenomics. In this study they genotyped obese subjects for the dopamine D2 receptors gene (DRD2). The subjects were assessed for scale weight and for percent body fat. The subjects were divided into matched placebo and chromium picolinate (CrP) groups. […] Moreover, the inventors propose for the first time that mixed effects now observed with CrP administration in terms of body composition, may be resolved by typing the patient via DRD2 genotyping prior to treatment with chromium salts.

Over-Eating [6] = conditions: cited from earlier work
Over-Eating [7] = conditions: after six months, p < 0.001 between groups; cited from earlier work
paw edema by carrageenin = conditions: topical 1% ointment, rats; cited from earlier work
[8] = system: patients receiving opiates for chronic non-malignant pain; conditions: concurrent treatment, author's clinical experience; cited from earlier work
[9] = system: rat caudate nucleus synaptosomal preparation; conditions: cited from earlier work
[10] = system: nucleus accumbens enkephalins; conditions: administered into the nucleus accumbens; cited from earlier work
rats [11] = conditions: naloxone 0.1 mg/kg; species not stated; cited from earlier work
[12] = system: brain dopamine and serotonin flux; conditions: intravenously, cited from earlier work
[13] = rats; cited from earlier work
[14] = with soya-lecithin, n-octanol-phosphate buffer; cited from earlier work
[15] = oral oil-based paste, free access to food, three of six animals; cited from earlier work
patients with CRPS1 = conditions: 3 of 5 patients; unchanged in the other 2; cited from earlier work
[16] = system: intracranial self-stimulation; conditions: nucleus accumbens microinjections; cited from earlier work
mice [17] = conditions: cited from earlier work
[18] = 250 mg/kg, reversed by naloxone; cited from earlier work
mice [19] = experiment: Alcohol preference in mice (acceptance and 14 day preference test); assay type: in vivo; conditions: d-phenylalanine 500 mg/kg/day 18 days, hydrocinnamic acid 25 micrograms icv
rats [20] = conditions: injections in rats; cited from earlier work
[21] = in vivo; cited from earlier work
cats = conditions: peptide 0.35 mg/kg and D-phenylalanine 10 mg/kg; cited from earlier work
CYP2D6 = target: T1, CYP2D6 (Homo sapiens, UniProt P10635); conditions: extensive but not poor metabolizers of debrisoquine/sparteine; cited from earlier work
T1 construct: host or cells: patients on methadone (in vivo)
T1 sequence (P10635 whole entry): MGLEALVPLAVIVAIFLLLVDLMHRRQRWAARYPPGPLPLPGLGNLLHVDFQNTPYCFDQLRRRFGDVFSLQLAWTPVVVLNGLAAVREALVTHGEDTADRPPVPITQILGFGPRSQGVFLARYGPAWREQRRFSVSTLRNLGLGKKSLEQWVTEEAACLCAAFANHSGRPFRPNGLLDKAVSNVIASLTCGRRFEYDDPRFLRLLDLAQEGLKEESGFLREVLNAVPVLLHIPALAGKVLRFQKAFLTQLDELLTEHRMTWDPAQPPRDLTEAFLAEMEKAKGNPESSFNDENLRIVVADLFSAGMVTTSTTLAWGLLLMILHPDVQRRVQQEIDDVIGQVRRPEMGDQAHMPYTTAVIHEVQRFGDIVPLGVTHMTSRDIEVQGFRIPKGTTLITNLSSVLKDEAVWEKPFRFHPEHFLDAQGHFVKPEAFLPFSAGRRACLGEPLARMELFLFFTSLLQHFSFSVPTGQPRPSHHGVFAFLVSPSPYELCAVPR

[22] = exercise training combined with CrP supplementation

Compound: OC[C@H]1O[C@@H](OCCc2ccc(O)cc2)[C@H](O)[C@@H](O)[C@@H]1O [Salidroside]
- H2O2-induced loss of mitochondrial membrane potential and elevation of intracellular calcium level ([1]; SH-SY5Y cells): dose-dependently restored
- antioxidant property [1]: potent

Compound: CN1CC[C@]23c4c5ccc(O)c4O[C@H]2[C@@H](O)C=C[C@H]3[C@H]1C5 [morphine]
- pain reaction thresholds (rats [2]): increase

Compound: C[C@H](CS)C(=O)N1CCC[C@H]1C(=O)O [captopril]
- CSF EKA (enkephalinase): decreased

Compound: N[C@@H](Cc1c[nH]c2ccc(O)cc12)C(=O)O [5-HTP, 5-hydroxy-1-tryptophan]
- 5-HT in dialysates [3]: immediate increase

Compound: CC12CCC(CC1)C(C)(C)O2 [1,8-cineole]
- Plasma concentrations of KPF with addition of the enhancer to gel ointment (rat skin): no significant enhancing effect

Compound: O=C(O)CNC(=O)C(CS)Cc1ccccc1 (centres unmarked) [thiorphan]
- CSF EKA (enkephalinase): decreased
- plasma EKA (enkephalinase): decreased
- potency as enkephalinase inhibitor among the three drugs (enkephalinase; plasma and CSF): most potent

Compound: Cl.O=C1CC[C@@]2(O)[C@H]3Cc4ccc(O)c5c4[C@@]2(CCN3CC2CC2)[C@H]1O5 [Trexan®]
- average number of days of compliance (methadone patients): 37 days

Compound: Chromium Picolinate
- weight change (obese women; CrP supplementation alone, 63 days): gain, while
- insulin response to an oral glucose load (obese women; [22]): lowered
- weight change (obese women; [22]): loss
- weight (p < 0.001) and body fat (p < 0.004) lost compared with placebo (Over-Eating [4]; 90 days): significantly more
- reduction in body fat (Over-Eating [4]; p < 0.001): greater reduction
- body composition (Over-Eating [4]; p < 0.004): improve body
- any parameter of weight and body fat change [5]: no significance
- body composition, body fat, nonfat mass (Over-Eating [6]; 00 mcg or 400 mcg, two double-blind placebo controlled studies): body composition improvement, loss of body fat, gain in nonfat mass
- changes in Body Mass composition indicies compared with placebo (Over-Eating [6]; 200 and 400 mcg, 72 days): about significant
- lean body mass (Over-Eating [7]): an increase in

Compound: COc1ccc2c(c1)c(CC(=O)O)c(C)n2C(=O)c1ccc(Cl)cc1 [indomethacin]
- paw edema by carrageenin (paw edema by carrageenin): markedly inhibited

Compound: NC(Cc1ccccc1)C(=O)O (racemic) [DL-phenylalanine (DLPA), DL-phenylalanine]
- pain relief in patients receiving opiates [8]: potentiate

Compound: CC(C)[C@@H]1CC[C@@H](C)C[C@H]1O [l-menthol]
- Plasma concentrations of KPF with addition of the enhancer to gel ointment (rat skin): no significant enhancing effect

Compound: CC(N)Cc1ccccc1 (centres unmarked) [Amphetamine]
- release of dopamine formed from 14C-phenylalanine [9]: increased

Compound: C=CCN1CC[C@]23c4c5ccc(O)c4O[C@H]2C(=O)CC[C@@]3(O)[C@H]1C5 [Naloxone]
- antinociception induced by intra-periaqueductal gray injection of morphine [10]: attenuated
- analgetic effect of peptide IKB-901 (rats [11]): prevents

Compound: CC(C)CC(N(C)C)C1(c2ccc(Cl)cc2)CCC1 (centres unmarked) [sibutramine]
- serotonin and dopamine concentrations in the striatal and hypothalamic brain regions ([12]; higher doses): increased
- serotonin and dopamine concentrations in dialysates ([12]; low doses): no effect

Compound: CC(C)(C)C1CCC(=O)CC1 [4-tert-butylcyclohexanone]
- percutaneous absorption of ketoprofen and indomethacin from gel ointments [13]: significantly lower

Compound: CC(C(=O)O)c1cccc(C(=O)c2ccccc2)c1 (racemic) [Ketoprofen]
- partition into n-octanol [14]: improves
- paw edema by carrageenin (paw edema by carrageenin): markedly inhibited
- concentrations in plasma [15]: no detectable concentrations

Compound: O=[N+]([O-])O[C@H]1CO[C@H]2[C@@H]1OC[C@H]2O[N+](=O)[O-] [ISDN, isosorbide dinitrate]
- Visual Analog Scale pain (patients with CRPS1): declined

Compound: O=C(O)Cc1ccccc1Nc1c(Cl)cccc1Cl [diclofenac sodium]
- paw edema by carrageenin (paw edema by carrageenin): markedly inhibited

Compound: CC(C)(C)C1CCCCC1=O (centres unmarked) [2-tert-butylcyclohexanone]
- percutaneous absorption of ketoprofen and indomethacin from gel ointments [13]: markedly enhanced

Compound: C[C@H](NC(=O)[C@@H](CC(=O)NO)Cc1ccccc1)C(=O)O [kelatrophan]
- intracranial self-stimulation [16]: reduced

Compound: CC1CCCC(C)C1=O (centres unmarked) [2,6-dimethyl]
- percutaneous absorption of ketoprofen and indomethacin from gel ointments [13]: significantly lower

Compound: COc1ccc(C[C@H](N)C(=O)N[C@H]2[C@@H](O)[C@H](n3cnc4c(N(C)C)ncnc43)O[C@@H]2CO)cc1 [puromycin]
- analgesia (mice [17]): long-lasting, naloxone-reversible analgesia

Compound: CCCCCCCCC1CCCCC1=O (centres unmarked) [2-n-octylcyclohexanone]
- percutaneous absorption of ketoprofen and indomethacin from gel ointments [13]: Pronounced effects

Compound: N[C@H](Cc1ccccc1)C(=O)O [D-phenylalanine]
- analgesia [18]: elicits analgesia
- alcohol preference (mice [19]): significantly reduced
- analgesia (mice [17]): long-lasting, naloxone-reversible analgesia
- antinociception induced by intra-periaqueductal gray injection of morphine [10]: potentiated
- CWS analgesia and morphine analgesia (rats [20]): decrease CWS analgesia while increasing morphine analgesia
- plasma EKA (enkephalinase): decreased
- analgesia [21]: naloxone reversible analgesia
- pain reaction thresholds (rats [2]): increase
- analgesia on coadministration with peptide IKB-901 (cats): enhances analgesia

Compound: CC[C@H](C)[C@H](N)C1=N[C@H](C(=O)N[C@@H](CC(C)C)C(=O)N[C@H](CCC(=O)O)C(=O)N[C@H](C(=O)N[C@H]2CCCCNC(=O)[C@H](CC(N)=O)NC(=O)[C@@H](CC(=O)O)NC(=O)[C@H](Cc3cnc[nH]3)NC(=O)[C@@H](Cc3ccccc3)NC(=O)[C@H]([C@@H](C)CC)NC(=O)[C@@H](CCCN)NC2=O)[C@@H](C)CC)CS1 [bacitracin] ({Ileψ(thiazoline)Cys}-L[dE]IK[dOrn]I[dF]H[dD]N; lactam 4-C)
- analgesia (mice [17]): long-lasting, naloxone-reversible analgesia

Compound: O=C(O)CCc1ccccc1 [hydrocinnamic acid]
- alcohol preference (mice [19]): significantly reduced

Compound: CCn1cc(C(=O)O)c(=O)c2ccc(Cc3ccccc3)nc21 [Amfoelic acid]
- release of dopamine formed from 14C-phenylalanine [9]: net release

Compound: Fc1ccc([C@@H]2CCNC[C@H]2COc2ccc3c(c2)OCO3)cc1 [paroxetine]
- steady-state plasma concentrations of (R)-methadone (CYP2D6): increases

Compound: CN1[C@@H]2CC[C@H]1C[C@@H](OC(c1ccccc1)c1ccccc1)C2 [Cogentin]
- release of dopamine formed from 14C-phenylalanine [9]: increased
